Laboratory results from ChEMBL document CHEMBL4265968, “Efficient analoging around ethionamide to explore thioamides bioactivation pathways triggered by boosters in Mycobacterium tuberculosis” (Eur J Med Chem, 2018).
Values after ≈ are worked out from the molar mass of the structure shown.

How the values were obtained:
[1] = system: Mycobacterium tuberculosis; experiment: Antimycobacterial activity against GFP expressing Mycobacterium tuberculosis H37Rv after 7 days in presence of EthR inhibitor BDM41906 by fluorescence assay; type: functional; details: 168 h
[2] = Electrochemical behavior of the compound assessed as redox potential corrected toward normal hydrogen electrode at 10^-3 M by cyclic voltammetry; type: physicochemical; details: 1000 µM
[3] = system: Mycobacterium tuberculosis; experiment: Antimycobacterial activity against GFP expressing Mycobacterium tuberculosis H37Rv after 7 days by fluorescence assay; type: functional; details: 168 h
[4] = system: Mycobacterium tuberculosis; experiment: Ratio of MIC50 for GFP expressing Mycobacterium tuberculosis H37Rv in absence of EthR inhibitor BDM41906 to MIC50 for GFP expressing Mycobacterium tuberculosis H37Rv in presence of EthR inhibitor BDM41906; type: functional
[5] = system: Mycobacterium tuberculosis; experiment: Ratio of MIC50 for GFP expressing Mycobacterium tuberculosis H37Rv in absence of EthR2 inhibitor SMARt-420 to MIC50 for GFP expressing Mycobacterium tuberculosis H37Rv in presence of EthR2 inhibitor SMARt-420; type: functional
[6] = system: Mycobacterium tuberculosis; experiment: Antimycobacterial activity against GFP expressing Mycobacterium tuberculosis H37Rv after 7 days in presence of EthR2 inhibitor SMARt-420 by fluorescence assay; type: functional; details: 168 h

| Compound | MIC50 [1] [µM] | Activity [2] [V] | MIC50 [3] [µM] | Ratio [4] | Ratio [5] | MIC50 [6] [µM] |
| --- | --- | --- | --- | --- | --- | --- |
| NC(=S)c1ccnc(C2(C(F)(F)F)CC2)c1 | 10 | 1.65 | > 30 | >3 | >3 | 10 |
| CCc1cc(C(N)=S)ccn1 [ETHIONAMIDE] | 2 | 1.46 | 19 (≈ 3.16 µg/mL) | 10 | 21 | 0.9 |
| CCc1cc(/C(N)=[S+]/[O-])ccn1 | 0.4 |  | 10 (≈ 1.82 µg/mL) | 25 | 33 | 0.3 |
| CC(C)Cc1cc(C(N)=S)ccn1 | 9.1 | 1.57 | > 30 | >3 | >8 | 3.8 |
| NC(=S)c1ccnc(CC2CCCCC2)c1 | 0.6 | 1.62 | > 30 | >50 | >43 | 0.7 |
| N#Cc1cccc(Cc2cc(C(N)=S)ccn2)c1 | 0.1 |  | 0.5 (≈ 0.127 µg/mL) | 5 | 5 | 0.1 |
| CC(C)c1cc(C(N)=S)ccn1 | 0.1 | 1.62 | 21 (≈ 3.79 µg/mL) | 210 | 105 | 0.2 |
| CC(C)CCc1cc(C(N)=S)ccn1 | 0.1 | 1.63 | 6.6 (≈ 1.37 µg/mL) | 52 | 52 | 0.1 |
| NC(=S)c1ccnc(Cc2ccccc2)c1 | 0.1 |  | 1.1 (≈ 0.251 µg/mL) | 11 | 11 | 0.1 |
| CCCCc1cc(C(N)=S)ccn1 | 0.6 | 1.39 | 5.8 (≈ 1.13 µg/mL) | 10 | 15 | 0.4 |
| CCCCc1cc(C(N)=O)ccn1 | > 30 |  | > 30 |  |  | > 30 |
| COc1ccc(Cc2cc(C(N)=S)ccn2)cc1 | 0.3 |  | 2.4 (≈ 0.62 µg/mL) | 8 | 12 | 0.2 |
| NC(=S)c1ccnc(CC(F)(F)F)c1 | 10 | 1.55 | > 30 | >3 | >20 | 1.5 |
| CCC(C)c1cc(C(N)=S)ccn1 (centres undefined) | 0.2 | 1.48 | 30 (≈ 5.83 µg/mL) | 150 | 150 | 0.2 |
| CC(c1ccccc1)c1cc(C(N)=S)ccn1 (centres undefined) | 0.6 |  | > 30 | >50 | >43 | 0.7 |
| NC(=S)c1ccnc(C2CC2)c1 | 1 | 1.4 | 6.6 (≈ 1.18 µg/mL) | 7 | 13 | 0.5 |
| CCCc1cc(C(N)=S)ccn1 [PROTIONAMIDE] | 0.9 | 1.43 | 13 (≈ 2.34 µg/mL) | 14 | 26 | 0.5 |
| NC(=S)c1ccnc(Cc2ccc(F)cc2)c1 | 0.2 |  | 1 (≈ 0.246 µg/mL) | 5 | 10 | 0.1 |
| CCOC(=O)CCc1cc(C(N)=S)ccn1 | 3.8 |  | > 30 | >8 | >23 | 1.3 |
| NC(=S)c1ccnc(Cc2cccc(F)c2)c1 | 0.1 |  | 0.6 (≈ 0.148 µg/mL) | 6 | 6 | 0.1 |
